Measured values from patent publication US20250313575A1, “MACROCYCLES AS LRRK2 INHIBITORS, PHARMACEUTICAL COMPOSITIONS, AND USES THEREOF” (Merck Sharp & Dohme LLC, priority 2022, published 2025).

Target: GST-tagged truncated human mutant G2019S LRRK2 (Homo sapiens (Human), UniProt Q5S007, G2019S)
Assay: LRRK2 G2019S Km ATP LanthaScreen assay
Assay type: biochemical
Conditions: G2019S LRRK2, 134 μM ATP (Km ATP), LRRKtide substrate
Description: Unless otherwise noted, all reactions are magnetically allowed to stir, diethyl ether used in the experiments described below is Fisher ACS certified material stabilized with BHT, and “concentrated” and/or “solvent removed under reduced pressure” means evaporating the solvent from a solution or mixture using a rotary evaporator or vacuum pump. Unless otherwise noted, flash chromatography is carried out on a Teledyne Isco (Lincoln, NE), Analogix (Burlington, WI), or Biotage (Stockholm, SWE) automated chromatography system using a commercially available cartridge as the column. Columns may be purchased from Teledyne Isco, Analogix, Biotage, Varian (Palo Alto, CA), or Supelco (Bellefonte, PA) and are usually filled with silica gel as the stationary phase. Reverse phase prep-HPLC conditions, where used, can be found at the end of each experimental section. Aqueous solutions were concentrated on a Genevac (Ipswich, ENG) or by freeze-drying/lyophilization. Unless otherwise noted, all LRRK2 pIC50 data presented in tables refers to the LRRK2 G2019S Km ATP LanthaScreen™ assay (Life Technologies Corp., Carlsbad, CA) that is described in the Biological Assay section.
The LRRK2 kinase activity reported herein as IC50 values was determined with LanthaScreen™ technology from Life Technologies Corporation (Carlsbad, CA) using GST-tagged truncated human mutant G2019S LRRK2 in the presence of the fluorescein-labeled peptide substrate LRRKtide, also from Life Technologies. The data presented for the […] depending on the specific conditions and reagents used. Assays were performed in the presence of 134 μM ATP (Km ATP). Upon completion, the assay was stopped and phosphorylated substrate detected with a terbium (Tb)-labeled anti-pERM antibody (cat. no. PV4898). The compound dose response was prepared by diluting a 10 mM stock of compound to a maximum concentration of 9.99 μM in 100% dimethylsulfoxide followed by custom fold serial dilution in dimethylsulfoxide nine times. Twenty nanoliters of each dilution was spotted via a Labcyte Echo onto a 384-well black-sided plate (Corning 3575) followed by 15 μl of a 1.25 nM enzyme solution in 1× assay buffer (50 mM Tris pH 8.5, 10 mM MgCl2, 0.01% Brij-35, 1 mM EGTA, 2 mM dithiothreitol, 0.05 mM sodium orthovanadate). Following a 15-minute incubation at room temperature, the kinase reaction was started with the addition of 5 μl of 400 nM fluorescein-labeled LRRKtide peptide substrate and 134 μM ATP solution in 1× assay buffer. The reaction was allowed to progress at ambient temperature for 90 minutes. The reaction was then stopped by the addition of 20 μl of TR-FRET Dilution Buffer (Life Technologies, Carlsbad, CA) containing 2 nM Tb-labeled anti-phospho LRRKtide antibody and 10 mM EDTA (Life Technologies, Carlsbad, CA). After an incubation of 1 h at room temperature, the plate was read on an EnVision multimode plate reader (Perkin Elmer, Waltham, MA) with an excitation wavelength of 337 nm (Laser) and a reading emission at both 520 and 495 nm. Compound IC50s were interpolated from nonlinear regression best fits of the log of the final compound concentration, plotted as a function of the 520/495-nm emission ratio using Activity base. Abase uses a 4 parameter (4P) logistic fit based on the Levenberg-Marquardt algorithm.

GST-tagged truncated human mutant G2019S LRRK2, sequence (Q5S007 970-2527 G2019S): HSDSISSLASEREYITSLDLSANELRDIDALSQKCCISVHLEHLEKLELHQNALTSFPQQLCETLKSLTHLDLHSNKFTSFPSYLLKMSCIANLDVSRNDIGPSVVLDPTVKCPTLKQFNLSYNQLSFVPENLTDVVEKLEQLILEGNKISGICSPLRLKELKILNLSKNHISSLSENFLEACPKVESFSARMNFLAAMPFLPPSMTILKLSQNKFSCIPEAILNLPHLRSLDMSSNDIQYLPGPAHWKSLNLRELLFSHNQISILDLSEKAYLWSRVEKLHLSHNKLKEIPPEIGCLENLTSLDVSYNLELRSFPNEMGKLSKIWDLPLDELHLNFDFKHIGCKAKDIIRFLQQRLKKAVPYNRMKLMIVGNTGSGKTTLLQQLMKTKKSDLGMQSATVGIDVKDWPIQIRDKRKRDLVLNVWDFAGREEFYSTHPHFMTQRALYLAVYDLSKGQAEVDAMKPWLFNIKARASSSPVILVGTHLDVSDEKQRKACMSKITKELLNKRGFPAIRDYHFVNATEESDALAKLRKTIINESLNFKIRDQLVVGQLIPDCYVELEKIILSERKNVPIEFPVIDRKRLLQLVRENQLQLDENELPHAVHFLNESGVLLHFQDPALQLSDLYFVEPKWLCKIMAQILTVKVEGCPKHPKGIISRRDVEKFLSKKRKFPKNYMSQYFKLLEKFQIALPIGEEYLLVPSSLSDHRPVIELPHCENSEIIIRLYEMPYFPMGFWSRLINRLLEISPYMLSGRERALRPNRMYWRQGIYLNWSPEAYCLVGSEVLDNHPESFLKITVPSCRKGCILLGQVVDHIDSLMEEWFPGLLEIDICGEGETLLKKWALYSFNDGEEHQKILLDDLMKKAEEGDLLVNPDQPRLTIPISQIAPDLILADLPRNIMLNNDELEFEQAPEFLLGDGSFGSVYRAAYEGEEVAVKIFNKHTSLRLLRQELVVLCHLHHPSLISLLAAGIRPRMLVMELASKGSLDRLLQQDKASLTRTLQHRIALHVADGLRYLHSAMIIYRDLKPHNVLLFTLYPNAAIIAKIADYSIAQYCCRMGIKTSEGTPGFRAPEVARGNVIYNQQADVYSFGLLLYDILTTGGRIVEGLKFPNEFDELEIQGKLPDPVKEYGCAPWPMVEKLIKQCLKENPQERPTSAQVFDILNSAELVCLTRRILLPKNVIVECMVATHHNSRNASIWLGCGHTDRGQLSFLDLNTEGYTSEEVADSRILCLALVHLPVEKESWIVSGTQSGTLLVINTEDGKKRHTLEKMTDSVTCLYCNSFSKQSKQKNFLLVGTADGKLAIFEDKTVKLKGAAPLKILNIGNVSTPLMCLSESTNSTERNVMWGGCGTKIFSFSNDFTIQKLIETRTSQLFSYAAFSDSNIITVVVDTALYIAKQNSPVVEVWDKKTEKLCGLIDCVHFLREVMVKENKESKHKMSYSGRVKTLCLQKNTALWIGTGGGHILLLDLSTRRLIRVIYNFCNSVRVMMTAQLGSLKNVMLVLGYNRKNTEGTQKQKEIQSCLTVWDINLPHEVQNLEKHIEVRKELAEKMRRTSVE

Cc1nn(C2CCC2)c2c1OCC[C@H]1COCCN1c1nc(ncc1C(F)(F)F)N2 (single isomer, unassigned) [Ex-21.4, (R) or (S)-3-cyclobutyl-1-methyl-8-(trifluoromethyl)-3,4,11,12,14,14a,15,16-octahydro-5,9-(azeno)[1,4]oxazino[4,3-j]pyrazolo[4,3-b][1]oxa[4,6,10]triazacyclotridecine]
IC50 (read-out: LRRK2 pIC50 (converted)): 2450 nM

Cc1nn(C2CCC2)c2c1OC[C@@H]1CC[C@H]1Nc1cc(ncc1F)N2 [Ex-13.6, (10aR,12aR)-3-cyclobutyl-8-fluoro-1-methyl-3,4,10,10a,11,12,12a,13-octahydro-5,9-(metheno)cyclobuta[k]pyrazolo[4,3-b][1]oxa[4,6,10]triazacyclotridecine]
LRRK2 pIC50: <5.00

Cc1nn(C2CCC2)c2c1OC[C@@H]1CN(C[C@H]1C)c1nc(ncc1C(F)(F)F)N2 (single isomer, unassigned) [Ex-20.2, (6S,7S)- or (6R,7R)-1-Cyclobutyl-3,7-dimethyl-11-(trifluoromethyl)-1,5,6,7,8,15-hexahydro-10,14-(azeno)-6,9-methanopyrazolo[4,3-b][1]oxa[4,6,10]triazacyclotetradecine]
LRRK2 pIC50: 9.39

Cc1nn(C)c2c1OCC1CC[C@H]1Nc1nc(ncc1C(F)(F)F)N2 (stereo partly drawn) [Ex-2.13, (10aR,12aS)- or (10aS,12aR)-1,3-dimethyl-8-(trifluoromethyl)-3,4,10,10a,11,12,12a,13-octahydro-5,9-(azeno)cyclobuta[k]pyrazolo[4,3-b][1]oxa[4,6,10]triazacyclotridecine]
LRRK2 pIC50: >10.09

CC(C)n1nc(CO)c2c1Nc1ncc(C(F)(F)F)c(n1)N[C@@H]1CC[C@H]1CO2 [Ex-6.5, ((10aR,12aR)-3-isopropyl-8-(trifluoromethyl)-3,4,10,10a,11,12,12a,13-octahydro-5,9-(azeno)cyclobuta[k]pyrazolo[4,3-b][1]oxa[4,6,10]triazacyclotridecin-1-yl)methanol]
LRRK2 pIC50: >10.09

CC(C)n1nc(C(C)(C)C#N)c2c1Nc1ncc(C(F)(F)F)c(n1)N[C@@H]1COC[C@H]1CO2 [Ex-2.43, 2-((10aS,13aS)-3-isopropyl-8-(trifluoromethyl)-3,4,10a,11,13a,14-hexahydro-10H,13H-5,9-(azeno)furo[3,4-k]pyrazolo[4,3-b][1]oxa[4,6,10]triazacyclotridecin-1-yl)-2-methylpropanenitrile]
LRRK2 pIC50: >10.09

Cn1cc(C2CC2c2nn(C3CCC3)c3c2OC[C@@H]2COC[C@H]2Nc2nc(ncc2C(F)(F)F)N3)cn1 (stereo partly drawn) [Ex-2.69, (10aS,13aS)-3-cyclobutyl-1-((1S,2S)- or (10aS,13aS)-3-cyclobutyl-1-((1R,2R)-2-(1-methyl-1H-pyrazol-4-yl)cyclopropyl)-8-(trifluoromethyl)-3,4,10a,11,13a,14-hexahydro-10H,13H-5,9-(azeno)furo[3,4-k]pyrazolo[4,3-b][1]oxa[4,6,10]triazacyclotridecine]
LRRK2 pIC50: >10.09

Cc1nn(C2CCC2)c2c1CC[C@@H]1COC[C@H]1Nc1nc(ncc1C(F)(F)F)N2 (single isomer, unassigned) [Ex-12.1, (10aS,13aS)- or (10aR,13aR)-3-Cyclobutyl-1-methyl-8-(trifluoromethyl)-3,4,10a,11,13,13a,14,15-octahydro-10H-5,9-(azeno)furo[3,4-h]pyrazolo[4,3-l][1,3,7]triazacyclotridecine]
LRRK2 pIC50: >10.09

Cc1nn(C)c2c1OCC1(CC1)C(C)Nc1nc(ncc1C(F)(F)F)N2 (single isomer, unassigned) [Ex-2.14, (R)- or (S)-1′,3′,7′-trimethyl-10′-(trifluoromethyl)-1′,7′,8',14′-tetrahydro-5′H-spiro[cyclopropane-1,6′-[9,13](azeno)pyrazolo[4,3-b][1]oxa[4,6,10]triazacyclotridecine]]
LRRK2 pIC50: 6.73

Cc1nn(C2CCC2)c2c1OC[C@H]1CN(CCO1)c1nc(ncc1C(F)(F)F)N2 (single isomer, unassigned) [Ex-21.1, (6R)- or (6S)-1-cyclobutyl-3-methyl-12-(trifluoromethyl)-1,5,6,8,9,16-hexahydro-11,15-(azeno)-6,10-methanopyrazolo[4,3-e][1,4]dioxa[7,9,13]triazacyclopentadecine]
LRRK2 pIC50: 6.09

CC(C)n1nc(C2CC2)c2c1Nc1ncc(C(F)(F)F)c(n1)N[C@@H]1COC[C@H]1CO2 [Ex-2.57, (10aS,13aS)-1-cyclopropyl-3-isopropyl-8-(trifluoromethyl)-3,4,10a,11,13a,14-hexahydro-10H,13H-5,9-(azeno)furo[3,4-k]pyrazolo[4,3-b][1]oxa[4,6,10]triazacyclotridecine]
LRRK2 pIC50: 9.98

CC(C)(C#N)c1nn(C2CCC2)c2c1OC[C@@H]1COC[C@H]1Nc1nc(ncc1C(F)(F)F)N2 [Ex-2.48, 2-((10aS,13aS)-3-cyclobutyl-8-(trifluoromethyl)-3,4,10a,11,13a,14-hexahydro-10H,13H-5,9-(azeno)furo[3,4-k]pyrazolo[4,3-b][1]oxa[4,6,10]triazacyclotridecin-1-yl)-2-methylpropanenitrile]
LRRK2 pIC50: >10.09

CC(C)c1nn(C(C)(C)CO)c2c1Nc1ncc(C(F)(F)F)c(n1)N[C@H](C)CCO2 [Ex-7.4, (R)-2-(3-isopropyl-11-methyl-8-(trifluoromethyl)-10,11,12,13-tetrahydro-5,9-(azeno)pyrazolo[3,4-b][1]oxa[4,6,10]triazacyclotridecin-1(4H)-yl)-2-methylpropan-1-ol]
LRRK2 pIC50: >10.09

Cn1nc(C(F)(F)F)c2c1OC[C@@H]1COC[C@H]1Nc1nc(ncc1Cl)N2 [Ex-1.13, (10aS,13aS)-8-chloro-1-methyl-3-(trifluoromethyl)-1,4,10a,11,13a,14-hexahydro-10H,13H-5,9-(azeno)furo[3,4-k]pyrazolo[3,4-b][1]oxa[4,6,10]triazacyclotridecine]
LRRK2 pIC50: 7.99

COC1CC(n2nc(C)c3c2Nc2ncc(Cl)c(n2)N[C@@H]2CC[C@H]2CO3)C1 (stereo partly drawn) [Ex-2.77, (10aR,12aR)-8-chloro-3-(3-methoxycyclobutyl)-1-methyl-3,4,10,10a,11,12,12a,13-octahydro-5,9-(azeno)cyclobuta[k]pyrazolo[4,3-b][1]oxa[4,6,10]triazacyclotridecine]
LRRK2 pIC50: >10.09

Cn1nc(C(F)(F)F)c2c1Nc1ncc(Cl)c(n1)N[C@@H]1COC[C@H]1CO2 [Ex-2.75, (10aS,13aS)-8-chloro-3-methyl-1-(trifluoromethyl)-3,4,10a,11,13a,14-hexahydro-10H,13H-5,9-(azeno)furo[3,4-k]pyrazolo[4,3-b][1]oxa[4,6,10]triazacyclotridecine]
LRRK2 pIC50: 9.50

COC(=O)c1nn(C2CCC2)c2c1OC[C@@H]1COC[C@H]1Nc1nc(ncc1C(F)(F)F)N2 [Ex-5.6, methyl (10aS,13aS)-3-cyclobutyl-8-(trifluoromethyl)-3,4,10a,11,13a,14-hexahydro-10H,13H-5,9-(azeno)furo[3,4-k]pyrazolo[4,3-b][1]oxa[4,6,10]triazacyclotridecine-1-carboxylate]
LRRK2 pIC50: 9.80

Cc1nn(C(C)C)c2c1OC[C@@H]1COC[C@H]1Nc1nc(ncc1C(F)(F)F)N2 [Ex-2.42, (10aS,13aS)-3-isopropyl-1-methyl-8-(trifluoromethyl)-3,4,10a,11,13a,14-hexahydro-10H,13H-5,9-(azeno)furo[3,4-k]pyrazolo[4,3-b][1]oxa[4,6,10]triazacyclotridecine]
LRRK2 pIC50: 9.93

Cn1nc(C(F)(F)F)c2c1OC[C@@H]1CC[C@H]1Nc1nc(ncc1Cl)N2 [Ex-1.19, (10aR,12aR)-8-chloro-1-methyl-3-(trifluoromethyl)-1,4,10,10a,11,12,12a,13-octahydro-5,9-(azeno)cyclobuta[k]pyrazolo[3,4-b][1]oxa[4,6,10]triazacyclotridecine]
LRRK2 pIC50: 9.87
